Laboratory results taken from the NIST ThermoML archive (doi:10.1016/j.jct.2016.10.033).

Key:
[1] = xn = mol fraction of the nth substance listed; conditions: 103 kPa, Liquid, Vibrating tube method, x1 = 1
[2] = refractive index (Na D-line) (dimensionless); xn = mol fraction of the nth substance listed; conditions: 103 kPa, Liquid, Standard Abbe refractometry, x1 = 1
[3] = 103 kPa, Liquid, Vibrating tube method
[4] = refractive index (Na D-line) (dimensionless); conditions: 103 kPa, Liquid, Standard Abbe refractometry

CO[Si](C)(OC)c1ccccc1 [dimethoxymethylphenylsilane] + CCO[Si](C)(C)OCC
Conditions	mass density, 298.15 K [kg/m3]	mass density, 303.15 K [kg/m3]	mass density, 308.15 K [kg/m3]	mass density, 313.15 K [kg/m3]	mass density, 318.15 K [kg/m3]	refractive index, 298.15 K	refractive index, 303.15 K	refractive index, 308.15 K	refractive index, 313.15 K	refractive index, 318.15 K
[1]	1000.78	996.13	991.48	986.81	982.15	–	–	–	–	–
[2]	–	–	–	–	–	1.47763	1.47528	1.47293	1.47061	1.46825

CO[Si](C)(OC)c1ccccc1 [dimethoxymethylphenylsilane] + C=C[Si](C)(OCC)OCC
Conditions	mass density, 298.15 K [kg/m3]	mass density, 303.15 K [kg/m3]	mass density, 308.15 K [kg/m3]	mass density, 313.15 K [kg/m3]	mass density, 318.15 K [kg/m3]	refractive index, 298.15 K	refractive index, 303.15 K	refractive index, 308.15 K	refractive index, 313.15 K	refractive index, 318.15 K
[1]	1000.78	996.13	991.48	986.81	982.15	–	–	–	–	–
[2]	–	–	–	–	–	1.47763	1.47528	1.47293	1.47061	1.46825

CO[Si](C)(C)OC [dimethoxydimethylsilane]
Conditions	mass density, 298.15 K [kg/m3]	mass density, 303.15 K [kg/m3]	mass density, 308.15 K [kg/m3]	mass density, 313.15 K [kg/m3]	mass density, 318.15 K [kg/m3]	refractive index, 298.15 K	refractive index, 303.15 K	refractive index, 308.15 K	refractive index, 313.15 K	refractive index, 318.15 K
[3]	857.9	852.05	846.16	840.22	834.24	–	–	–	–	–
[4]	–	–	–	–	–	1.36816	1.36559	1.36297	1.36035	1.35771

C=C[Si](C)(OCC)OCC [methylvinyldiethoxysilane]
Conditions	mass density, [3] [kg/m3]	refractive index, [4]
293.15 K	862.21	1.40033
298.15 K	856.25	1.39751
303.15 K	851.09	1.39501
308.15 K	845.89	1.39249
313.15 K	840.71	1.38997
318.15 K	835.44	1.38742

CO[Si](C)(OC)c1ccccc1 [dimethoxymethylphenylsilane] + C=C[Si](OC)(OC)OC
Conditions	mass density, 298.15 K [kg/m3]	mass density, 303.15 K [kg/m3]	mass density, 308.15 K [kg/m3]	mass density, 313.15 K [kg/m3]	mass density, 318.15 K [kg/m3]	refractive index, 298.15 K	refractive index, 303.15 K	refractive index, 308.15 K	refractive index, 313.15 K	refractive index, 318.15 K
[1]	1000.78	996.13	991.48	986.81	982.15	–	–	–	–	–
[2]	–	–	–	–	–	1.47763	1.47528	1.47293	1.47061	1.46825

C=C[Si](OC)(OC)OC [trimethoxy(vinyl)silane]
Conditions	mass density, 298.15 K [kg/m3]	mass density, 303.15 K [kg/m3]	mass density, 308.15 K [kg/m3]	mass density, 313.15 K [kg/m3]	mass density, 318.15 K [kg/m3]	refractive index, 298.15 K	refractive index, 303.15 K	refractive index, 308.15 K	refractive index, 313.15 K	refractive index, 318.15 K
[3]	965.69	960.02	954.26	948.47	942.63	–	–	–	–	–
[4]	–	–	–	–	–	1.39022	1.38775	1.38535	1.3829	1.38046

CO[Si](C)(OC)c1ccccc1 [dimethoxymethylphenylsilane]
Conditions	mass density, 298.15 K [kg/m3]	mass density, 303.15 K [kg/m3]	mass density, 308.15 K [kg/m3]	mass density, 313.15 K [kg/m3]	mass density, 318.15 K [kg/m3]	refractive index, 298.15 K	refractive index, 303.15 K	refractive index, 308.15 K	refractive index, 313.15 K	refractive index, 318.15 K
[3]	1000.78	996.13	991.48	986.81	982.15	–	–	–	–	–
[4]	–	–	–	–	–	1.47763	1.47528	1.47293	1.47061	1.46825

CCO[Si](C)(C)OCC [dimethyldiethoxysilane]
Conditions	mass density, [3] [kg/m3]	refractive index, [4]
293.15 K	840.11	1.38452
298.15 K	835.43	1.38045
303.15 K	830.05	1.37791
308.15 K	824.66	1.37532
313.15 K	819.23	1.37275
318.15 K	813.79	1.37015

CO[Si](C)(OC)c1ccccc1 [dimethoxymethylphenylsilane] + CO[Si](C)(C)OC
Conditions	mass density, 298.15 K [kg/m3]	mass density, 303.15 K [kg/m3]	mass density, 308.15 K [kg/m3]	mass density, 313.15 K [kg/m3]	mass density, 318.15 K [kg/m3]	refractive index, 298.15 K	refractive index, 303.15 K	refractive index, 308.15 K	refractive index, 313.15 K	refractive index, 318.15 K
[1]	1000.78	996.13	991.48	986.81	982.15	–	–	–	–	–
[2]	–	–	–	–	–	1.47763	1.47528	1.47293	1.47061	1.46825
